In patent US11807625B2, “Capsid inhibitors for the prevention of HIV” (Gilead Sciences, Inc., priority 2019, dated 2023):

Assay: PK of compound of Formula (Ia) after single subcutaneous dose of solution formulations in Wistar Han rats
Type: in vivo
Details: male, Wistar Han, rat, plasma, sc, 50 mg/kg, SC 50 mg/kg
Procedure: Formulations containing the compound of Formula (Ia), or a pharmaceutically acceptable salt thereof, were prepared as solutions and optionally administered subcutaneously or intramuscularly to rats, rabbits, and/or dogs.
(§1) A solution of about 400 mg/mL of the compound of Formula (Ia) having 19.14 w/w % water, 40.66 w/w % PEG 300, 35.20 w/w % of a sodium salt of a compound of Formula (Ia), and 5.00% ethanol was prepared. The solution was administered subcutaneously to male Wistar Han rats at a dose level of about 50 mg/kg and dose volume of 0.125 mL/kg and the pharmacokinetic (PK) profile was determined.
as §1, with “500” for “400”, “16.64” for “19.14”, “35.36” for “40.66”, “43.00” for “35.20”, “0.1” for “0.125”
(§2) A solution of about 400 mg/mL of the compound of Formula (Ia) having 17.00 w/w % water, 36.40 w/w % PEG 300, 35.20 w/w % of a sodium salt of a compound of Formula (Ia), 5.00 w/w % ethanol, and 6.40 w/w % poloxamer 188 was prepared. The solution was administered subcutaneously to male beagle dogs at a dose level of about 12 mg/kg and male Wistar Han rats at a dose level of about 50 mg/kg. The pharmacokinetic profiles were determined, and the results for dogs are summarized in Table and Table, while the results for rats are summarized in Table and Table below.
as §2, with “500” for “400”, “14.06” for “17.00”, “30.12” for “36.40”
A solution of about 300 mg/mL of the compound of Formula (Ia) having 23.33 w/w % water, 48.99 w/w % PEG 300, 26.47 w/w % of a sodium salt of a compound of Formula (Ia), and 1.21 w/w % poloxamer 188 was prepared. The solution was administered subcutaneously to male beagle dogs at a dose level of about 6 mg/kg and male Wistar Han rats at a dose level of about 50 mg/kg. The pharmacokinetic profiles were determined, and the results for dogs are summarized in Table and Table, while the results for rats are summarized in Table and Table below.
as §2, with “18.80” for “17.00”, “40.25” for “36.40”, “34.38” for “35.20”, “1.57” for “6.40”
as §2, with “500” for “400”, “16.29” for “17.00”, “34.88” for “36.40”, “41.92” for “35.20”, “1.91” for “6.40”
A solution of about 400 mg/mL of the compound of Formula (Ia) having 20.90 w/w % water, 44.72 w/w % PEG 300, and 34.38 w/w % of a sodium salt of a compound of Formula (Ia) was prepared. […]

[1] = mean, n = 3 rats, solution R, 400 mg/mL
[2] = mean, n = 3 rats, solution S, 500 mg/mL
[3] = mean, n = 3 rats, solution V, 300 mg/mL
[4] = mean, n = 5 rats, solution T, 400 mg/mL
[5] = mean, n = 5 rats, solution U, 500 mg/mL
[6] = individual rats, solution R, 400 mg/mL
[7] = individual rats, solution S, 500 mg/mL
[8] = individual rats, solution V, 300 mg/mL
[9] = mean (rat #1 NS), solution T, 400 mg/mL
[10] = Wistar Han rats, 400 mg/mL solution AA (6.25% poloxamer 188), Mean n = 4
[11] = Wistar Han rats, 400 mg/mL solution AA (6.25% poloxamer 188), animals #1-#4

concentration at 672 h [1]: 339 nM | concentration at 672 h [2]: 296 nM | concentration at 672 h [3]: 308 nM | concentration at 672 h [4]: 298 nM | concentration at 672 h [5]: 296 nM | concentration at 840 h [6]: 295 nM | concentration at 840 h [7]: 429 nM | concentration at 840 h [8]: 285 nM | concentration at 840 h [1]: 350 nM | concentration at 840 h [2]: 300 nM | concentration at 840 h [3]: 308 nM | concentration at 840 h [4]: 215 nM | concentration at 840 h [5]: 261 nM | concentration at 1008 h [6]: 303 nM | concentration at 1008 h [1]: 354 nM | concentration at 1008 h [2]: 300 nM | concentration at 1008 h [3]: 258 nM | concentration at 1008 h [4]: 207 nM | concentration at 1008 h [5]: 284 nM | concentration at 1334 h [6]: 296 nM | concentration at 1334 h [7]: 398 nM | concentration at 1334 h [1]: 328 nM | concentration at 1334 h [2]: 300 nM | concentration at 1344 h [8]: 272 nM | concentration at 1344 h [3]: 301 nM | concentration at 1344 h [4]: 159 nM | concentration at 1344 h [5]: 226 nM | concentration at 1680 h [6]: 271 nM | concentration at 1680 h [7]: 342 nM | concentration at 1680 h [8]: 221 nM | concentration at 1680 h [9]: 145 nM | concentration at 1680 h [1]: 277 nM | concentration at 1680 h [2]: 249 nM | concentration at 1680 h [3]: 250 nM | concentration at 1680 h [5]: 198 nM | concentration at 2016 h [6]: 199 nM | concentration at 2016 h [7]: 221 nM | concentration at 2016 h [8]: 138 nM | concentration at 2016 h [9]: 140 nM | concentration at 2016 h [1]: 202 nM | concentration at 2016 h [2]: 171 nM | concentration at 2016 h [3]: 181 nM | concentration at 2016 h [5]: 174 nM | concentration at 2352 h [6]: 183 nM | concentration at 2352 h [7]: 231 nM | concentration at 2352 h [8]: 122 nM | concentration at 2352 h [9]: 117 nM | concentration at 2352 h [1]: 182 nM | concentration at 2352 h [2]: 173 nM | concentration at 2352 h [3]: 165 nM | concentration at 2352 h [5]: 167 nM | concentration at 2688 h [6]: 168 nM | concentration at 2688 h [7]: 171 nM | concentration at 2688 h [8]: 113 nM | concentration at 2688 h [9]: 162 nM | concentration at 2688 h [1]: 154 nM | concentration at 2688 h [2]: 148 nM | concentration at 2688 h [3]: 141 nM | concentration at 2688 h [5]: 108 nM | concentration at 3024 h [6]: 136 nM | concentration at 3024 h [7]: 125 nM | concentration at 3024 h [8]: 81.4 nM | concentration at 3024 h [9]: 131 nM | concentration at 3024 h [1]: 122 nM | concentration at 3024 h [2]: 108 nM | concentration at 3024 h [3]: 99.1 nM | concentration at 3024 h [5]: 102 nM | concentration at 3360 h [6]: 132 nM | concentration at 3360 h [7]: 135 nM | concentration at 3360 h [8]: 81.1 nM | concentration at 3360 h [9]: 117 nM | concentration at 3360 h [1]: 111 nM | concentration at 3360 h [2]: 110 nM | concentration at 3360 h [3]: 77.4 nM | concentration at 3360 h [5]: 88 nM | concentration at 3696 h [7]: 102 nM | concentration at 3696 h [8]: 72.2 nM | concentration at 3696 h [9]: 73.7 nM | concentration at 3696 h [1]: 94.8 nM | concentration at 3696 h [2]: 92 nM | concentration at 3696 h [3]: 68.4 nM | concentration at 3696 h [5]: 70.5 nM | concentration at 4032 h [7]: 118 nM | concentration at 4032 h [8]: 56.6 nM | concentration at 4032 h [9]: 71.5 nM | concentration at 4032 h [1]: 102 nM | concentration at 4032 h [2]: 110 nM | concentration at 4032 h [3]: 52.3 nM | concentration at 4032 h [5]: 65.7 nM | concentration at 4704 h [7]: 62.9 nM | concentration at 4704 h [8]: 35.9 nM | concentration at 4704 h [9]: 44.3 nM | concentration at 4704 h [1]: 69 nM | concentration at 4704 h [2]: 71.5 nM | concentration at 4704 h [3]: 30.2 nM | concentration at 4704 h [5]: 43.1 nM | concentration at 5376 h [9]: 34.4 nM | concentration at 5376 h [1]: 58 nM | concentration at 5376 h [2]: 58.8 nM | concentration at 5376 h [5]: 38.9 nM | concentration at 6048 h [9]: 29 nM | concentration at 6048 h [1]: 30.2 nM | concentration at 6048 h [2]: 45 nM | concentration at 6048 h [5]: 36.2 nM | concentration at 6720 h [9]: 21.5 nM | concentration at 6720 h [1]: 26.3 nM | concentration at 6720 h [2]: 37 nM | concentration at 6720 h [5]: 26.5 nM | concentration at 7392 h [1]: 16.5 nM | concentration at 7392 h [2]: 29.4 nM | concentration at 8064 h [1]: 12.3 nM | concentration at 8064 h [2]: 24.8 nM | concentration at 1 h [10]: 35.9 nM | concentration at 1 h [11]: 29 nM | concentration at 3 h [10]: 69.5 nM | concentration at 3 h [11]: 67.9 nM | concentration at 8 h [10]: 122 nM | concentration at 8 h [11]: 109 nM | concentration at 24 h [10]: 233 nM | concentration at 24 h [11]: 259 nM | concentration at 48 h [10]: 251 nM | concentration at 48 h [11]: 272 nM | concentration at 72 h [10]: 227 nM | concentration at 72 h [11]: 231 nM | concentration at 96 h [10]: 201 nM | concentration at 96 h [11]: 211 nM | concentration at 168 h (Wistar Han rats, 400 mg/mL solution AA (6.25% poloxamer 188), 168 h, Mean n = 4): 141 nM | concentration at 336 h (Wistar Han rats, 400 mg/mL solution AA (6.25% poloxamer 188), 336 h, Mean n = 4): 130 nM | concentration at 504 h (Wistar Han rats, 400 mg/mL solution AA (6.25% poloxamer 188), 504 h, Mean n = 4): 131 nM | concentration at 672 h [10]: 117 nM | concentration at 672 h [11]: 130 nM | concentration at 840 h [10]: 118 nM | concentration at 840 h [11]: 170 nM | concentration at 1008 h [10]: 103 nM | concentration at 1008 h [11]: 134 nM | concentration at 1344 h [10]: 77.1 nM | concentration at 1344 h [11]: 93 nM | concentration at 1680 h [10]: 63.8 nM
Compound: CC(C)(C#Cc1ccc(-c2ccc(Cl)c3c(NS(C)(=O)=O)nn(CC(F)(F)F)c23)c([C@H](Cc2cc(F)cc(F)c2)NC(=O)Cn2nc(C(F)(F)F)c3c2C(F)(F)[C@@H]2C[C@H]32)n1)S(C)(=O)=O [compound of Formula (Ia)]
